According to US11279735B2, “Cyclic peptide antibiotics” (priority 2017, dated 2022):
In brackets after ≈: the same amount, converted by molar mass. *1 amine or outer side, *2 acyl side, *3 side chain or, on linkers, in order; H or OH if unused. Where a SMILES comes first, the peptide text is derived from it. [ ]: non-standard residue; d: D form. X23 = CCCCCCCCCC[C@@H](OCCN[*:1])[C@@H](C)C(=O)[*:2]; aIle = CC[C@@H](C)[C@H](N)C(=O)O; NMeL = CN[C@@H](CC(C)C)C(=O)O; Dap = NC[C@H](N)C(=O)O

These compounds were tested on Escherichia coli (E. coli) strain CFT073 ATCC 700928. Conditions: ATCC 700928, 22 h.
Format: cell-based
Summary of the method: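 Broth microdilution MIC per CLSI M07-A8 in cation-adjusted Mueller Hinton II broth with 0.002% Tween-80. Ten-point 2-fold series topped at 64, 4, 0.5 or 0.13 μg/mL depending on protocol. Final inoculum OD600 0.0005, incubated 22 h at 35 °C.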

| MIC | Compound |
| --- | --- |
| 50 µM (≈ 36.3 µg/mL) | CCCCCCCCCC[C@H]1OC(=O)CNC(=O)[C@H]([C@H](C)O)NC(=O)[C@H](CN)NC(=O)[C@H](CCCOC)NC(=O)[C@H](CC(C)C)N(C)C(=O)[C@@H]1C [Example 87, (6S,9S,12S,15S,18R,19R)-9-(aminomethyl)-19-decyl-15-isobutyl-12-(3-methoxypropyl)-16,18-dimethyl-6-[(1S)-1-hydroxyethyl]-1-oxa-4,7,10,13,16-pentazacyclononadecane-2,5,8,11,14,17-hexone] |
| 50 µM (≈ 38 µg/mL) | CCCCCCCCCC[C@H]1OC(=O)CNC(=O)[C@H]([C@H](C)O)NC(=O)[C@H](CN)NC(=O)[C@H]([C@H](C)CC)NC(=O)[C@H](CCc2ccccc2)N(C)C(=O)[C@@H]1C [Example 88, (6S,9S,12S,15S,18R,19R)-9-(aminomethyl)-19-decyl-16,18-dimethyl-15-(2-phenylethyl)-6-[(1S)-1-hydroxyethyl]-12-[(1R)-1-methylpropyl]-1-oxa-4,7,10,13,16-pentazacyclononadecane-2,5,8,11,14,17-hexone] |
| 12 µM (≈ 8.43 µg/mL) | CC[C@@H](C)[C@@H]1NC(=O)[C@H](CC(C)C)N(C)C(=O)[C@H](C)[C@@H](CCCCc2ccccc2)OC(=O)CNC(=O)[C@H]([C@H](C)O)NC(=O)[C@H](CN)NC1=O [Example 89, (6S,9S,12S,15S,18R,19R)-9-(aminomethyl)-15-isobutyl-16,18-dimethyl-19-(4-phenylbutyl)-6-[(1S)-1-hydroxyethyl]-12-[(1R)-1-methylpropyl]-1-oxa-4,7,10,13,16-pentazacyclononadecane-2,5,8,11,14,17-hexone] |
| 21 µM (≈ 13.8 µg/mL) | CCCCCC[C@H]1OC(=O)CNC(=O)[C@H]([C@H](C)O)NC(=O)[C@H](CN)NC(=O)[C@H](CC(C)C)NC(=O)[C@H](CC(C)C)N(C)C(=O)[C@@H]1C [Example 90, (6S,9S,12S,15S,18R,19R)-9-(aminomethyl)-19-hexyl-12,15-diisobutyl-16,18-dimethyl-6-[(1S)-1-hydroxyethyl]-1-oxa-4,7,10,13,16-pentazacyclononadecane-2,5,8,11,14,17-hexone] |
| 50 µM (≈ 34.4 µg/mL) | CCCCCC[C@H]1OC(=O)CNC(=O)[C@H]([C@H](C)O)NC(=O)[C@H](CN)NC(=O)[C@H](Cc2ccccc2)NC(=O)[C@H](CC(C)C)N(C)C(=O)[C@@H]1C [Example 91, (6S,9S,12S,15S,18R,19R)-9-(aminomethyl)-12-benzyl-19-hexyl-15-isobutyl-16,18-dimethyl-6-[(1S)-1-hydroxyethyl]-1-oxa-4,7,10,13,16-pentazacyclononadecane-2,5,8,11,14,17-hexone] |
| 19 µM (≈ 14.9 µg/mL) | CCCCCCCCCC[C@H]1OC(=O)CNC(=O)[C@H](COCCOCCN)NC(=O)[C@H](CO)NC(=O)[C@H]([C@@H](C)CC)NC(=O)[C@H](CC(C)C)N(C)C(=O)[C@@H]1C [Example 92, (6S,9S,12S,15S,18R,19R)-6-[2-(2-aminoethoxy)ethoxymethyl]-19-decyl-9-(hydroxymethyl)-15-isobutyl-16,18-dimethyl-12-[(1S)-1-methylpropyl]-1-oxa-4,7,10,13,16-pentazacyclononadecane-2,5,8,11,14,17-hexone] |
| 10 µM (≈ 7.39 µg/mL) | CCCCCCCCCC[C@H]1OC(=O)[C@@H](CC)NC(=O)[C@H]([C@H](C)O)NC(=O)[C@H](CN)NC(=O)[C@H]([C@H](C)CC)NC(=O)[C@H](CC(C)C)N(C)C(=O)[C@@H]1C [Example 93, (3R,6S,9S,12S,15S,18R,19R)-9-(aminomethyl)-19-decyl-3-ethyl-15-isobutyl-16,18-dimethyl-6-[(1S)-1-hydroxyethyl]-12-[(1R)-1-methylpropyl]-1-oxa-4,7,10,13,16-pentazacyclononadecane-2,5,8,11,14,17-hexone] |
| 4.4 µM (≈ 3.16 µg/mL) | CC[C@@H](C)[C@@H]1NC(=O)[C@H](CC(C)C)N(C)C(=O)[C@H](C)[C@@H](CCC23CC4CC(CC(C4)C2)C3)OC(=O)CNC(=O)[C@H](CO)NC(=O)[C@H](CN)NC1=O [Example 94, (6S,9S,12S,15S,18R,19R)-19-[2-(1-adamantyl)ethyl]-9-(aminomethyl)-6-(hydroxymethyl)-15-isobutyl-16,18-dimethyl-12-[(1R)-1-methylpropyl]-1-oxa-4,7,10,13,16-pentazacyclononadecane-2,5,8,11,14,17-hexone] |
| 14 µM (≈ 10.6 µg/mL) | CCCCCCCCCC[C@H]1OC(=O)CNC(=O)[C@H](COCCCN)NC(=O)[C@H](CO)NC(=O)[C@H]([C@@H](C)CC)NC(=O)[C@H](CC(C)C)N(C)C(=O)[C@@H]1C [Example 95, (6S,9S,12S,15S,18R,19R)-6-(3-aminopropoxymethyl)-19-decyl-9-(hydroxymethyl)-15-isobutyl-16,18-dimethyl-12-[(1S)-1-methylpropyl]-1-oxa-4,7,10,13,16-pentazacyclononadecane-2,5,8,11,14,17-hexone] |
| 5.3 µM (≈ 4.09 µg/mL) | CCCCCC[C@H]1OC(=O)CNC(=O)[C@H]([C@H](C)O)NC(=O)[C@H](CN)NC(=O)[C@H](C2CCCCC2)NC(=O)[C@H](CC(C)C)N(C)C(=O)[C@@H]1Cc1ccc(C)cc1 [Example 96, (6S,9S,12S,15S,18R,19R)-9-(aminomethyl)-12-cyclohexyl-19-hexyl-15-isobutyl-16-methyl-18-(p-tolylmethyl)-6-[(1S)-1-hydroxyethyl]-1-oxa-4,7,10,13,16-pentazacyclononadecane-2,5,8,11,14,17-hexone] |
| 3.7 µM (≈ 2.9 µg/mL) | CCCCCC[C@H]1OC(=O)CNC(=O)[C@H]([C@H](C)O)NC(=O)[C@H](CN)NC(=O)[C@H](C2CCCCC2)NC(=O)[C@H](CC(C)C)N(C)C(=O)[C@@H]1CCc1ccc(C)cc1 [Example 97, (6S,9S,12S,15S,18R,19R)-9-(aminomethyl)-12-cyclohexyl-19-hexyl-15-isobutyl-16-methyl-18-[2-(p-tolyl)ethyl]-6-[(1S)-1-hydroxyethyl]-1-oxa-4,7,10,13,16-pentazacyclononadecane-2,5,8,11,14,17-hexone] |
| 71 µM (≈ 47.9 µg/mL) | CCCCCC[C@H]1OC(=O)CNC(=O)[C@H]([C@H](C)O)NC(=O)[C@H](CN)NC(=O)[C@H](c2ccccc2)NC(=O)[C@H](CC(C)C)N(C)C(=O)[C@@H]1C [Example 98, (6S,9S,12S,15S,18R,19R)-9-(aminomethyl)-19-hexyl-15-isobutyl-16,18-dimethyl-12-phenyl-6-[(1S)-1-hydroxyethyl]-1-oxa-4,7,10,13,16-pentazacyclononadecane-2,5,8,11,14,17-hexone] |
| 17 µM (≈ 11.6 µg/mL) | CCCCCCCCCC[C@H]1OCCNC(=O)[C@H](CO)NC(=O)[C@H](CN)NC(=O)[C@H]([C@H](C)CC)NC(=O)[C@H](CC(C)C)N(C)C(=O)[C@@H]1C [Example 99, (6S,9S,12S,15S,18R,19R)-9-(aminomethyl)-19-decyl-6-(hydroxymethyl)-15-isobutyl-16,18-dimethyl-12-[(1R)-1-methylpropyl]-1-oxa-4,7,10,13,16-pentazacyclononadecane-5,8,11,14,17-pentone] (cyclo([Dap]S[X23][NMeL][aIle])) |
| 35 µM (≈ 23.4 µg/mL) | CCCCCC[C@H]1OC(=O)CNC(=O)[C@H]([C@H](C)O)NC(=O)[C@H]([C@H](C)O)NC(=O)[C@H]([C@H](C)CC)NC(=O)[C@H](CC(C)C)N(C)C(=O)[C@@H]1C [Example 100, (6S,9S,12S,15S,18R,19R)-19-hexyl-15-isobutyl-16,18-dimethyl-6,9-bis[(1S)-1-hydroxyethyl]-12-[(1R)-1-methylpropyl]-1-oxa-4,7,10,13,16-pentazacyclononadecane-2,5,8,11,14,17-hexone] |
